Laboratory results published in patent US20230065799A1, “METHOD FOR ATTRIBUTING OLFACTORY TONALITIES TO OLFACTORY RECEPTOR ACTIVATION AND METHODS FOR IDENTIFYING COMPOUNDS HAVING THE ATTRIBUTED TONALITIES” (FIRMENICH SA, priority 2019, published 2023).
Values belong to the compound of their own block, whether it stands above or below them.

Columns and labels:
[1] = target: T1, OR8B3 (Homo sapiens, UniProt Q8NGG8); experiment: OR8B3 cell-based cAMP HTRF assay; conditions: dose-response, 100% = full agonist; for Emax: read-out: OR8B3 % Efficacy
T1 construct: Lucy (cleavable signal peptide) (N); FLAG (N); Rho (first 20 aa of bovine rhodopsin) (N); expressed in transfected cells
T1 sequence (Q8NGG8 1-313): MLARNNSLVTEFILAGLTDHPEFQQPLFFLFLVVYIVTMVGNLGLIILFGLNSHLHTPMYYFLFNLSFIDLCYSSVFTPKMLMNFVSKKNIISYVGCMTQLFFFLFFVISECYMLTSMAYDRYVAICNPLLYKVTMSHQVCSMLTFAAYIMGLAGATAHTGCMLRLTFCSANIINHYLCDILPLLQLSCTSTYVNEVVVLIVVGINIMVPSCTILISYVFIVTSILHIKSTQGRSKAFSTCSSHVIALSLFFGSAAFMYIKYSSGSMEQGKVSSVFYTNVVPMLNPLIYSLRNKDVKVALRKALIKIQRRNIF

[2] = target: T2, OR11A1 (Homo sapiens, UniProt Q9GZK7); experiment: OR11A1 cell-based cAMP HTRF assay in HEK293T cells; conditions: for Emax: HEK-293T, read-out: OR11A1 % Efficacy; for Emax / OR11A1 % Efficacy: dose-response, 100% = full agonist
T2 construct: FLAG (N); Rho (first 20 aa of bovine rhodopsin) (N); expressed in transfected cells
T2 sequence (Q9GZK7 1-315): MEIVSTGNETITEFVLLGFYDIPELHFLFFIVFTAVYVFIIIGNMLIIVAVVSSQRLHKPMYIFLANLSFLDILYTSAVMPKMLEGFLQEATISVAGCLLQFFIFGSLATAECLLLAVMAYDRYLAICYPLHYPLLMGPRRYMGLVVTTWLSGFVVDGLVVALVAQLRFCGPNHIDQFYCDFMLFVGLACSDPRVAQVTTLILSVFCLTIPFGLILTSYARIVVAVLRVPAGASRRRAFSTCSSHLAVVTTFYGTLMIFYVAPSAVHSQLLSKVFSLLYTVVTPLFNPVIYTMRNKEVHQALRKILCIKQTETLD
Protocol: The molecular receptive range of the human odorant receptor OR11A1 (SEQ ID NO. 11) was tested by performing a large scale screening with a chemically and organoleptically diverse volatile compound library comprising approximately 800 compounds. Using a cell-based assay, OR11A1 was tested in an HEK293T cell line wherein the endogenous RTP1 gene has been activated and the odorant receptor chaperone was expressed (WO2016/201153 A1). Cells were co-transfected with the Flag-Rho-tagged receptor and the canonical olfactory G-protein Golf, and exposed to a single concentration of each test compound, tested individually. Receptor activity was detected by measuring the cAMP increase in the cytosol using an HTRF (Homogenous Time-Resolved Fluorescence unit) based kit (CisBio, cAMP dynamic 2 kit, 62AM4PEJ).
First, 300 mM stock solutions for 798 test compounds were made in pure DMSO. The stock solutions for each compound were further diluted to a final test concentration of 300 μM. The final concentration of DMSO was 0.1%, and had no visible effect on the cells. Each compound was presented to a cell line expressing the OR11A1 olfactory receptor. The quality of this high-throughput screening (HTS) process was determined and the window variability and signal reliability were assessed by calculating the Z′ value of each plate (the average Z′ value per plate was 0.72±0.12, well within the required quality standards between 0.5 and 1). The result of this single concentration activation screen is shown in FIG. 3, where hits are highlighted in light grey dots.
In a subsequent step using the same cell-based assay described above, the candidate hits were confirmed to be true agonists (activators) by performing dose-response experiments as shown in FIG. 4 for a subset of the best hits. […] Both sensitivity (potency) and activation strength (efficacy) were calculated from the curves, as a measure of EC50 (the concentration required to reach half-maximal activation level) and Span (the assay window span between baseline activity level and activation saturation plateau), respectively. These values were used to represent the molecular receptive range of OR11A1 according to the potency (X axis) and efficacy (Y axis) in FIG. 5. A partial agonist, Tonalide, is also listed. The […] agonists cover distinct perfumery tonalities: woody (Patchouli Alcohol), musky (Vulcanolide, Tonalide), and camphorous (Fenchyl Alcohol), Table 2. Taken together, the data depict the diversity of both the organoleptic tonalities and chemical structures of compounds capable of activating OR11A1, congruent with results described in WO2016/201152 A1 (musk) and EP2832347A1.(patchouli). The OR11A1 activity however was not associated with the tonalities of musk (WO2016/201152 A1) or patchouli (EP2832347A1) specifically but rather the earthy facet thereof. In fact, the single commonality between these compounds was the earthy tonality, which is semantically captured by the following descriptors: earthy, humus and earthy-moss. These compounds are neither all musks nor patchouli but they all are earthy.

[3] = target: T3, OR5AU1 (Homo sapiens, UniProt Q8NGC0); experiment: OR5AU1 cell-based cAMP HTRF assay; conditions: for Emax: read-out: OR5AU1 % Efficacy; for Active OR/Linked Tonality: OR5AU1 (Lactonic Coconut): receptor listed = activated by the compound
T3 construct: Lucy (cleavable signal peptide) (N); FLAG (N); Rho (first 20 aa of bovine rhodopsin) (N); expressed in transfected cells
T3 sequence (Q8NGC0 52-362): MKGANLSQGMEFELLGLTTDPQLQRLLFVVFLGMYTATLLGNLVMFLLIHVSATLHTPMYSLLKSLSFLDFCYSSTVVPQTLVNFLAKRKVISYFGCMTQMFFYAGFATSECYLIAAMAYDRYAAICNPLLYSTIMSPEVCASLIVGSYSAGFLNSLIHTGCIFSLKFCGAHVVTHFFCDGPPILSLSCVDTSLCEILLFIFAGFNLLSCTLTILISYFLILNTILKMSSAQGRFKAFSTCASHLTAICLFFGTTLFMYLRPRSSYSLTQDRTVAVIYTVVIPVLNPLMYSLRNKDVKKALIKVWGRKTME

[4] = dose-response, 100% = full agonist

OR8B3 % Efficacy [1]: 74%
Compound: 9-ethylidene-3-oxatricyclo[6.2.1.0^{2,7}]undecan-4-one; 10-ethylidene-3-oxatricyclo[6.2.1.0^{2,7}]undecan-4-one [Florex]

Compound: CC1(C)CCCC(C)(C)C1=O [2,2,6,6-tetramethyl-1-cyclohexanone]
OR11A1 agonism in dose-response experiments [2]: did not yield any significant dose-response

Emax [1]: 95%
Compound: O=c1ccc2ccccc2o1 [Coumarin, chromen-2-one]

Emax [3, 4]: 80%
Compound: CCCCCC1CCCC1=O (stereo not drawn) [Delphone, 2-pentylcyclopentan-1-one]

Emax [3, 4]: 92%
Active OR/Linked Tonality: OR5AU1 (Lactonic Coconut) [3]: OR5AU1/
Compound: CC=CCCC1CCCC(=O)O1 (stereo not drawn) [Delta Jasmolactone, 6-pent-3-enyloxan-2-one]

Emax [3, 4]: 88%
Compound: CCCCCC1CCCC(=O)O1 (stereo not drawn) [Delta decalactone, 6-pentyloxan-2-one]

Emax [2]: 86%
Compound: CC12CCC(C1)C(C)(C)C2O (stereo not drawn) [Fenchyl Alcohol, (1~{R},2~{R},4~{S})-1,3,3-trimethylbicyclo[2.2.1]heptan-2-ol]

Active OR/Linked Tonality: OR5AU1 (Lactonic Coconut) [3]: OR5AU1/
Compound: CCCCCCC1CCC(=O)O1 (stereo not drawn) [Gamma Decalactone, 5-hexyloxolan-2-one]

Active OR/Linked Tonality: OR5AU1 (Lactonic Coconut) [3]: OR5AU1/
Emax [1]: 100%
Compound: CCCCC1CCC(=O)O1 (stereo not drawn) [Gamma Octalactone, 5-butyloxolan-2-one]

Emax [2]: 100%
Compound: CC1CCCC2(C)CCCCC12O (stereo not drawn) [Geosmin, (4~{S},8~{a}~{R})-4,8~{a}-dimethyl-1,2,3,4,5,6,7,8-octahydronaphthalen-4~{a}-ol]

Active OR/Linked Tonality: OR5AU1 (Lactonic Coconut) [3]: OR5AU1/
Emax [1]: 97%
Compound: CCCCC1CCCC(=O)O1 (stereo not drawn) [Nonalactone Delta, 6-butyloxan-2-one]

OR8B3 % Efficacy [1]: 95%
Compound: O=C1CCC2CCCCC2O1 (stereo not drawn) [Octahydrocoumarine, 3,4,4~{a},5,6,7,8,8~{a}-octahydrochromen-2-one]

Active OR/Linked Tonality: OR5AU1 (Lactonic Coconut) [3]: OR5AU1/
Compound: CCCC1CCCC(=O)O1 (stereo not drawn) [Octalactone Delta, 6-propyloxan-2-one]

OR11A1 % Efficacy [2]: 83%
Compound: C[C@@H]1CC[C@]2(O)C(C)(C)[C@H]3CC[C@@]2(C)[C@@H]1C3 [Patchouli Alcohol, (1~{S},3~{S},6~{R},7~{R},8~{S})-2,2,6,8-tetramethyltricyclo[5.3.1,0^{3,8}]undecan-3-ol]

Compound: CC(=O)c1cc2c(cc1C)C(C)(C)C(C)CC2(C)C (stereo not drawn) [Tonalide, 1-(3,5,5,6,8,8-hexamethyl-6,7-dihydronaphthalen-2-yl)ethanone]
OR11A1 agonism in dose-response experiments [2]: weak (partial) agonist
Emax [2]: 21%

OR8B3 % Efficacy [1]: 77%
Compound: CC1(C)[C@H]2C[C@H]3CCC(=O)C=C3[C@@H]1C2 [Tricyclone, (1~{R},7~{R},9~{S})-10,10-dimethyltricyclo[7.1.1.0^{2,7}]undec-2-en-4-one]

OR5AU1 % Efficacy [3, 4]: 100%
Compound: CCCCC[C@H]1OC(=O)C[C@H]1C [Tuberolide Ht, (4~{R},5~{R})-4-methyl-5-pentyloxolan-2-one]

OR11A1 % Efficacy [2]: 89%
Compound: Cc1cc2c(cc1C=O)C(C)(C)[C@H](C)[C@@H](C)C2(C)C [Vulcanolide, (6~{R},7~{R})-3,5,5,6,7,8,8-heptamethyl-6,7-dihydronaphthalene-2-carbaldehyde]

Active OR/Linked Tonality: OR5AU1 (Lactonic Coconut) [3]: OR5AU1/
Emax [1]: 88%
Compound: CCCCC1OC(=O)CC1C (stereo not drawn) [Whiskey Lactone K, 5-butyl-4-methyloxolan-2-one]
